Results on 88 compounds are retold here after a melting point compilation (Tetko et al.; mined from patent text by program, amines drawn as free bases though some values may be those of a salt).

Residues, ends and D or L forms follow the SMILES beside them. *: point of attachment. PhAc = O=C(Cc1ccccc1)*; NHNH2 = NN* Bounds are passed on as bounds.

As for `CCc1c(C(=O)O)ccc(OC)c1C`, the melting point (commonly the temperature of the solid-liquid transition) amounted to 180 °C.
As for `CC12CCC(=O)C=C1CCC1C2CCC2(C)C(C(=O)C3CCCCC3)CCC12` (stereo not drawn), the figure is 159 to 161 °C.
As for `COc1c(C)cc(-c2nn(C(C)c3oc4ccccc4c(=O)c3-c3cccc(F)c3)c3ncnc(N)c23)cc1C` (stereo not drawn), the figure is 234 to 236 °C; as for `COS(=O)(=O)c1ccc(Cl)cc1NC(=O)/C=C/c1ccc2ccccc2c1`, 178 to 180 °C.
To `O=C(O)CCc1ccc(OCc2ccc(Oc3ccccc3)cc2)c(F)c1` belongs 123 to 125 °C; to `CC1(O)CC(=O)OC(CCc2ccc(O)cc2)C1` (stereo not drawn), 135 to 137 °C.
The compound `CCOC(=O)c1c(CN(CC)CC)nc2sc3c(c2c1-c1ccc(OC)c(OC)c1)CCN(S(C)(=O)=O)C3` had a melting point of 147 to 148 °C.
To `CCOC(=O)CN(CC(=O)OCC)C(=O)C(CCC(=O)O)CS(=O)(=O)c1ccc2ccccc2c1` (stereo not drawn) belongs 108 to 111 °C.
To `Cc1cc(Cl)nnc1NN` belongs 191 to 192 °C.
In turn, `COc1ccc(N(CCN2CCC(C(=O)c3ccc(F)cc3)CC2)C(=O)c2ccc(N)cc2)c(OC)c1` yielded a melting point of 135 to 138 °C.
`CS(=O)(=O)n1ccc2cc3c(cc21)C(C#N)C3` (stereo not drawn): the melting point lay in the range of 142 to 144 °C.
On to `Cc1ccc2c(c1)C1(CCN(CCCC(=O)c3ccc(F)cc3)C1)CC2O` (stereo not drawn), for which the melting point fell in the range of 172 to 174 °C.
`O=C(O)c1cc(N2C(=O)C3=C(CCCC3)C2=O)ccc1O` yielded a melting point of 240 °C.
`CC(C)(C)OC(=O)[C@H](Cc1ccccc1)NC(=O)CNC1Cc2ccccc2C1` displayed a melting point of 117 to 120 °C.
As for `O=CNc1csc(Cl)n1`, the melting point was 138 °C.
Turning to `COc1ccc(S)c(Cl)c1Cl`, the melting point lay within 81.5 to 83 °C.
To `CC/C(=C(/c1ccc(O)cc1)c1ccc(OCCN(C)C)cc1)c1ccc(C(C)C)cc1` belongs 95 to 96 °C; to `CCCN=C(NC#N)NCCSCc1[nH]cnc1C`, 108 to 110 °C.
For `Cn1c(C(F)(F)F)nn(-c2cc(O)c(C#N)cc2F)c1=O`, the melting point was determined as 208 °C.
For the compound `CC(C)NC(=O)C(Cl)Cl`, the melting point lay within 45 to 48 °C.
`CC(=O)c1ccc(OCCOc2ccc3ccccc3c2)cc1Cl`: the melting point was 119 to 120 °C.
In turn, `Cc1ccc(NC(=O)N(C)C(c2cnc(C(F)F)nc2Cl)C(C)C)cc1` (stereo not drawn) came in with a melting point of 135 to 137 °C.
In the case of `CCOC(=O)C(=CNc1ccc(F)c(F)c1O)C(=O)OCC`, the melting point fell in the range of 178 to 180 °C.
Take `COC(=O)Cc1nc(-c2ccc(OC)cc2)c(-c2ccc(OC)cc2)s1`: the melting point was 79 to 81.5 °C.
To `CCCCc1cccc(-c2cn(C)cc(-c3ccccc3)c2=O)c1` belongs 87 to 89 °C; to `CC(C=O)Oc1ccc(OCc2ccccc2)cc1` (stereo not drawn), 50 to 51 °C.
`CCCc1nn(Cc2ccccc2)c(C(N)=O)c1NC(=O)c1cc(S(=O)(=O)N2CCN(C)CC2)ccc1OCC` showed a melting point of 182 to 184 °C.
As to `CCOC(=O)CNC(=O)n1nc(Oc2cccc(C(F)(F)F)c2)cc1C`, the melting point lay in the range of 66 to 68 °C.
Compound `CSc1ccc(C=CC(N)=O)cc1` came in with a melting point of 193 °C.
For `CN(C)c1ccc2nnc(C(=O)O)c(O)c2c1`, the melting point is more than 330 °C.
With `CC(=O)NCCc1cn(S(=O)(=O)c2c(Cl)nc3sccn23)c2ccccc12`, the melting point was in the range of 150 to 152 °C.
Compound `OCc1cc2cc3c(cc2nc1I)OCCO3` gave a melting point of 178 to 180 °C.
Consider `O=C(O)c1cccc2cc3ccccc3cc12`, for which the melting point worked out at 245 °C.
In turn, `COc1cccc(CNC(=O)c2nc3scc(COc4ccc(CC(=O)O)cc4)c3c(=O)[nH]2)c1` returned a melting point of 228 to 230 °C.
To `CCOC(=O)C(NC(C)=O)(C(=O)OCC)C1=Nc2ccc(Cl)cc2C(c2ccccc2Cl)=NC1` belongs 153 to 155 °C.
To `COc1cc(Nc2nc3cccc(-c4ccc(S(=O)(=O)N5CCOCC5)cc4)c3o2)cc(OC)c1OC` belongs 201 to 203 °C; to `OCCCc1cnoc1-c1ccc(OC(F)(F)F)cc1`, 50 to 51 °C; to `COc1cc(C2c3cc4c(cc3C(NC3=CC(=O)N(Cc5ccc(F)cc5)C3=O)C3COC(=O)C23)OCO4)cc(OC)c1O[Si](C)(C)C(C)(C)C` (stereo not drawn), 182 to 184 °C.
As for `O=C1c2ccccc2C(=O)N1CCSc1ccc(O)cc1`, the figure is 124 to 125 °C.
The compound `CCSc1nccn1N1CCN(c2ccc(OC)cc2)CC1` yielded a melting point of 112 °C.
In the case of `CNC(=O)c1cccc(NC(=O)Cc2c(C)ccc3ccccc23)c1`, the melting point fell in the range of 230 to 231 °C.
In turn, `N#Cc1sc(N2CCCC2)nc1N` registered a melting point of 305 to 308 °C.
To `CCCCCCCCCCCCCCCCCCCCCCOC(=O)P(=O)(O)O` belongs 92 to 93 °C; to `CC(C)(C)[Si](n1cc(Br)c2ncccc21)(C(C)(C)C)C(C)(C)C`, 79 to 80 °C; to `CC(C)(C)c1ccc(C(=O)n2c3cc(O)c(O)cc3c3c(Br)cc(O)c(O)c32)cc1`, more than 280 °C.
As for `Sc1nnc(-c2ccc3c(c2)CCO3)o1`, the figure is 219 to 221 °C.
As for `CCC1(Cc2ccc(O)cc2)NC(=O)NC1=O` (stereo not drawn), the figure is 236 to 238 °C; as for `CCC(C)OC(=O)N1CCC(c2nc3cc(-c4ccc(-n5cnnn5)cc4F)ccc3o2)CC1` (stereo not drawn), 118 to 122 °C.
Regarding `O=C(NCCCC(c1cc(F)ccc1F)S(=O)(=O)c1ccc(Cl)cc1)OCCI` (stereo not drawn), the melting point was in the range of 100 to 101 °C.
The compound `O=C(O)c1cccc(-c2nc(-c3cccc(C(F)(F)F)c3)cs2)c1` yielded a melting point of 229 to 230 °C.
Regarding `O=C(O)Cc1cccc(OCCCNCC(c2ccccc2)c2ccccc2)c1`, the melting point amounted to 49.1 °C.
For `CCCCCCCCCCN(O)C(=O)NCC(=O)OCC`, the melting point lay within 70 to 71 °C.
As for `CCOC(=O)C(=O)c1csc(NC(c2ccccc2)c2ccccc2)n1`, the figure is 82 to 85 °C; as for `CC(NC(=O)C1CCCN1C(=O)Cc1ccccc1)C(=O)NN` (stereo not drawn) (PhAc-Pro-Ala-NHNH2; configuration not given here), 142 to 143 °C; as for `Cc1ccc2c(c1C)OC(C)C(NNc1ncnc3c1ncn3C1OC(CO)C(O)C1O)C2` (stereo not drawn), 109 to 113 °C.
Turning to `COc1ccc(S(=O)(=O)N(Cc2ccccc2)c2c(C(=O)O)cnc3c2cnn3-c2ccccc2)cc1`, the melting point is 108 to 110 °C.
As for `N#Cc1cc([N+](=O)[O-])ccc1Oc1ccc(Cl)cc1`, the figure is 163 to 164 °C; as for `CCCCC1(N(C)C)CCC(c2[nH]c3ccc(C(F)(F)F)cc3c2C)CC1` (stereo not drawn), 141 to 146 °C; as for `CC(CC(=O)Nc1c(Cl)ccc2nc(N3CCC(NCCCO)C3)ccc12)c1ccccc1` (stereo not drawn), 155 to 158 °C.
The compound `Cc1ccc(NC(=O)c2ccc([N+](=O)[O-])cc2)cc1` showed a melting point of 140 to 146 °C.
To `Cc1nc(NC(=O)Cc2cccs2)c(Br)c(C)c1Br` belongs 154 °C.
To `O=C(Nc1ccc(OC(F)(F)F)cc1)NC1CCN(C(=O)C2CC2)CC1` belongs 195 to 196 °C.
To `CC1(c2ccccc2)SC(=S)N(Nc2ccccc2)C1=NOC(=O)Nc1ccc(Cl)c(Cl)c1` (stereo not drawn) belongs 95 to 96 °C; to `CCCCCCCCCC(=O)c1ccc(O)c(C(=O)Nc2ccc([N+](=O)[O-])cc2)c1`, 142 to 143 °C.
`CCCCCCCCCCCCCCOc1ccc(CC(=O)O)cc1` gave a melting point of 86 to 87 °C.
`Cc1ccc(-c2nc(-c3nn(Cc4ccccc4F)c4ncccc34)ncc2C#N)cc1` came in with a melting point of 229 °C.
`O=C1C=CC(=Cc2cccs2)O1` showed a melting point of 100 to 102 °C.
As for `NCC(O)COc1cccc2c1=NC(=O)N=2` (stereo not drawn), the figure is 188 to 190 °C; as for `O=C(O)COc1cc(Cl)ccc1C(=O)NCc1ccc(OC(F)(F)F)cc1`, 184 to 185 °C; as for `Cc1oc(-c2ccco2)nc1COc1ccc(CCCC2OC(=O)NC2=O)cc1O` (stereo not drawn), 152 to 153 °C.
As for `COc1ccc(-n2c(C)nc3ccccc32)cc1`, the figure is 121 to 123 °C.
Turning to `CN(C)C(=O)c1ncn2c1CC(=O)N(c1ccccc1)c1cc(Cl)ccc1-2`, the melting point was in the range of 255 to 257 °C.
With `CC(=O)/C=C(\C)c1ccc(-c2ccccc2F)cc1`, the melting point was 92 °C.
Turning to `CC(C)(c1ccccc1)c1cccc(S(=O)(=O)Cl)c1`, the melting point was 47.5 to 49 °C.
`CCOC(=O)c1ncn(-c2ccn(C)n2)c1N`: the melting point lay in the range of 168 to 170 °C.
As for `C=CCNC(=O)N1C[C@@H](Oc2cccc(C(F)(F)F)c2)[C@@H]1C` (relative stereo), the figure is 55 to 57 °C; as for `CC1(N2C(=O)c3cccc(NC(=O)c4cccc(Cl)c4)c3C2=O)CCC(=O)NC1=O` (stereo not drawn), 283 to 285 °C.
In the case of `Cc1noc(-c2ncn3c2cnc2ccccc23)n1`, the melting point was 269 to 270 °C.
To `Fc1ccc2[nH]cc(C3=CCN(CC4CCc5ccc6ncccc6c5O4)CC3)c2c1` (stereo not drawn) belongs 148 °C; to `CN(C)c1nc(-c2ccc3c(c2)OCO3)c2cc3c(cc2n1)OCO3`, 200 to 206 °C; to `CCOC(=O)[C@H](CCc1ccccc1)N[C@@H](C)C(=O)N1CC2(C[C@H]1C(=O)O)SCCS2`, 124 to 126 °C.
In turn, `Cc1cccc2cc(C(=O)N(C)C)c(C=CNc3ccc(F)cc3)nc12` yielded a melting point of 172 to 173 °C.
To `CCCCCCCCCCCCCCCCCC(=O)OCCOc1ccc(C2C(=O)Oc3c2cc(C(C)(C)C)cc3C(C)(C)C)cc1` (stereo not drawn) belongs 54 to 60 °C; to `Cc1nnc(NC2CCCCC2)s1`, 192 to 194 °C; to `O=C(Cc1c2c(nn1-c1ccccc1)c(=O)[nH]c1ccccc12)N1CCN(Cc2ccccc2)CC1`, 283 to 285 °C.
As to `COc1cc(OC)c2c(=O)cc(-c3ccccc3Cl)oc2c1C1CCN(C)C1CO` (stereo not drawn), the melting point lay within 91 to 93 °C.
To `CCOC(=O)N(c1ccccc1N)c1cccc(C)c1C` belongs 95 to 97 °C; to `CC(=O)OC1CSC(Oc2cncc(-c3c(C)noc3C)c2)C(OC(C)=O)C1OC(C)=O` (stereo not drawn), 129 to 131 °C.
